In PubChem BioAssay (NCI):
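96-well plates; 48 h exposure; 5 concentrations. Endpoints by linear interpolation between flanking doses. Not reached: highest tested concentration assigned. GI50 = concentration required for 50% inhibition of growth. TGI: concentration producing complete growth inhibition.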

What was measured:
Assay in all cases: NCI anticancer screen, dose series, 48 h
[1] = system: UACC-62 melanoma
[2] = system: SNB-75 CNS
[3] = system: MALME-3M melanoma
[4] = system: SNB-19 CNS
[5] = system: OVCAR-4 ovarian
[6] = system: OVCAR-3 ovarian
[7] = system: PC-3 prostate
[8] = system: M14 melanoma
[9] = system: NCI-H23 lung
[10] = system: OVCAR-5 ovarian
[11] = system: NCI/ADR-RES ovarian
[12] = system: COLO 205 colon
[13] = system: HOP-62 NSCLC
[14] = system: SF-295 CNS
[15] = system: K-562 leukemia
[16] = system: SN12C renal
[17] = system: HT29 colon
[18] = system: MDA-MB-435
[19] = system: MCF7 breast
[20] = system: OVCAR-8 ovarian
[21] = system: SF-539 CNS
[22] = system: HS 578T breast
[23] = system: ACHN renal
[24] = system: RPMI-8226 leukemia
[25] = system: EKVX NSCLC
[26] = system: CCRF-CEM leukemia
[27] = system: TK-10 renal
[28] = system: HCT-15 colon
[29] = system: DU-145 prostate
[30] = system: NCI-H522 lung
[31] = system: LOX IMVI melanoma
[32] = system: A549 NSCLC
[33] = system: 786-0 renal
[34] = system: UACC-257 melanoma
[35] = system: T-47D breast
[36] = system: SR leukemia
[37] = system: A498 renal
[38] = system: SK-MEL-28 melanoma
[39] = system: SK-MEL-5 melanoma
[40] = system: HL-60(TB) leukemia
[41] = system: NCI-H460 lung
[42] = system: NCI-H226 lung
[43] = system: SK-MEL-2 melanoma
[44] = system: HCT-116 colon
[45] = system: UO-31 renal
[46] = system: KM12 colon
[47] = system: HOP-92 NSCLC
[48] = system: SW-620 colon
[49] = system: BT-549 breast
[50] = system: SF-268 CNS
[51] = system: CAKI-1 renal
[52] = system: IGROV1 ovarian
[53] = system: SK-OV-3 ovarian
[54] = system: MDA-MB-231 breast
[55] = system: MOLT-4 leukemia
[56] = system: HCC-2998 colon
[57] = system: U251 CNS
[58] = system: RXF 393 renal

## Cc1cc(N/N=C/c2nc(-c3ccc(Br)cc3)oc2C)c2cc(Cl)ccc2n1
[1]
  GI50: > 100 µM
  TGI: > 100 µM
[2]
  GI50: > 100 µM
  TGI: > 100 µM
[3]
  GI50: > 100 µM
  TGI: > 100 µM
[4]
  GI50: > 100 µM
  TGI: > 100 µM
[5]
  GI50: > 100 µM
  TGI: > 100 µM
[6]
  GI50: > 100 µM
  TGI: > 100 µM
[7]
  GI50: > 100 µM
  TGI: > 100 µM
[8]
  GI50: > 100 µM
  TGI: > 100 µM
[9]
  GI50: > 100 µM
  TGI: > 100 µM
[10]
  GI50: > 100 µM
  TGI: > 100 µM
[11]
  GI50: > 100 µM
  TGI: > 100 µM
[12]
  GI50: > 100 µM
  TGI: > 100 µM
[13]
  GI50: > 100 µM
  TGI: > 100 µM
[14]
  GI50: > 100 µM
  TGI: > 100 µM
[15]
  GI50: > 100 µM
  TGI: > 100 µM
[16]
  GI50: > 100 µM
  TGI: > 100 µM
[17]
  GI50: > 100 µM
  TGI: > 100 µM
[18]
  GI50: > 100 µM
  TGI: > 100 µM
[19]
  GI50: > 100 µM
  TGI: > 100 µM
[20]
  GI50: > 100 µM
  TGI: > 100 µM
[21]
  GI50: > 100 µM
  TGI: > 100 µM
[22]
  GI50: > 100 µM
  TGI: > 100 µM
[23]
  GI50: > 100 µM
  TGI: > 100 µM
[24]
  GI50: > 100 µM
  TGI: > 100 µM
[25]
  GI50: > 100 µM
  TGI: > 100 µM
[26]
  GI50: > 100 µM
  TGI: > 100 µM
[27]
  GI50: > 100 µM
  TGI: > 100 µM
[28]
  GI50: > 100 µM
  TGI: > 100 µM
[29]
  GI50: > 100 µM
  TGI: > 100 µM
[30]
  GI50: > 100 µM
  TGI: > 100 µM
[31]
  GI50: > 100 µM
  TGI: > 100 µM
[32]
  GI50: > 100 µM
  TGI: > 100 µM
[33]
  GI50: > 100 µM
  TGI: > 100 µM
[34]
  GI50: > 100 µM
  TGI: > 100 µM
[35]
  GI50: > 100 µM
  TGI: > 100 µM
[36]
  GI50: > 100 µM
  TGI: > 100 µM
[37]
  GI50: > 100 µM
  TGI: > 100 µM
[38]
  GI50: > 100 µM
  TGI: > 100 µM
[39]
  GI50: > 100 µM
  TGI: > 100 µM
[40]
  GI50: > 100 µM
  TGI: > 100 µM
[41]
  GI50: > 100 µM
  TGI: > 100 µM
[42]
  GI50: > 100 µM
  TGI: > 100 µM
[43]
  GI50: > 100 µM
  TGI: > 100 µM
[44]
  GI50: > 100 µM
  TGI: > 100 µM
[45]
  GI50: > 100 µM
  TGI: > 100 µM
[46]
  GI50: > 100 µM
  TGI: > 100 µM
[47]
  GI50: > 100 µM
  TGI: > 100 µM
[48]
  GI50: > 100 µM
  TGI: > 100 µM
[49]
  GI50: > 100 µM
  TGI: > 100 µM
[50]
  GI50: > 100 µM
  TGI: > 100 µM
[51]
  GI50: > 100 µM
  TGI: > 100 µM
[52]
  GI50: > 100 µM
  TGI: > 100 µM
[53]
  GI50: > 100 µM
  TGI: > 100 µM
[54]
  GI50: > 100 µM
  TGI: > 100 µM
[55]
  GI50: > 100 µM
  TGI: > 100 µM
[56]
  GI50: > 100 µM
  TGI: > 100 µM
[57]
  GI50: > 100 µM
  TGI: > 100 µM
[58]
  GI50: > 100 µM
  TGI: > 100 µM
